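Results reflect a 48-hour exposure of cells in 96-well plates to compound at five concentrations. TGI: concentration producing complete growth inhibition.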

Data on 14 compounds can be found in PubChem BioAssay (NCI).

Among the test systems are OVCAR-4 ovarian; SF-539 CNS; UO-31 renal; SF-295 CNS; MOLT-4 leukemia; A549 NSCLC; TK-10 renal; CCRF-CEM leukemia; M14 melanoma; EKVX NSCLC.
What all share (assay): DTP human tumour cell line panel, 48 h

Broadly, the TGI is the concentration at which net growth stops. Regarding `C/C=C1\CN2CCC34c5ccccc5N(C)C35OCC4(C(=O)OC)C1CC25` (stereo not given), the TGI with OVCAR-4 ovarian, in the assay with SF-539 CNS, with UO-31 renal, with SF-295 CNS, in the assay on MOLT-4 leukemia and in the assay with A549 NSCLC was over 100 µM each time. The TGI with TK-10 renal was over 100 µM; with CCRF-CEM leukemia it was over 100 µM; in the assay on M14 melanoma it was 45.4 µM; in the assay on EKVX NSCLC, over 100 µM.
Consider `O=c1c2ncn(C3CCCCO3)c2n(-c2ccccc2)c(=S)n1-c1ccccc1` (stereo not given), for which the TGI in the assay on OVCAR-4 ovarian is over 87.2 µM; with SF-539 CNS it was 32.4 µM; in the assay with UO-31 renal, over 71.4 µM; in the assay with SF-295 CNS, 51.7 µM; in the assay on MOLT-4 leukemia, over 100 µM; with A549 NSCLC it was over 100 µM. In addition, the TGI is 83 µM in the assay with TK-10 renal, over 100 µM with CCRF-CEM leukemia, over 100 µM with M14 melanoma and over 87.9 µM with EKVX NSCLC.
As to `CC(=O)[C@H]1CC[C@H]2[C@@H]3CCC4=CC(=O)CC[C@]4(C)[C@H]3CC[C@]12C`, the TGI worked out at 79.3 µM in the assay with OVCAR-4 ovarian; 34.1 µM in the assay with SF-539 CNS; 26.4 µM with UO-31 renal; 76 µM with SF-295 CNS; 35.2 µM with MOLT-4 leukemia; 88.5 µM with A549 NSCLC. Moreover, the TGI came to 52.2 µM in the assay on TK-10 renal, 48 µM in the assay with CCRF-CEM leukemia, 32.4 µM in the assay on M14 melanoma and 9.66 µM with EKVX NSCLC.
Consider `Cc1ccc2ccc(=O)oc2c1`, for which the TGI in the assay on OVCAR-4 ovarian, with SF-539 CNS, with UO-31 renal, in the assay with SF-295 CNS, with MOLT-4 leukemia and in the assay on A549 NSCLC was over 100 µM throughout. Further, the TGI in the assay with TK-10 renal, in the assay with CCRF-CEM leukemia, with M14 melanoma and in the assay with EKVX NSCLC was over 100 µM in each case.
Turning to `OC12C3C4CC5C(C4[C@@H]1Br)C2[C@@](O)(c1c(F)c(F)c(F)c(F)c1F)C53` (stereo not given in full), the TGI was over 100 µM with OVCAR-4 ovarian; over 100 µM with SF-539 CNS; 95.2 µM with UO-31 renal; 76.8 µM in the assay on SF-295 CNS; over 100 µM in the assay on MOLT-4 leukemia; over 100 µM with A549 NSCLC. The TGI in the assay with TK-10 renal is over 100 µM; with CCRF-CEM leukemia, over 100 µM; with M14 melanoma, over 100 µM; with EKVX NSCLC, 98.9 µM.
As to `O=S(=O)(O)c1ccc2c(N=Nc3ccccc3)c(O)c(S(=O)(=O)O)cc2c1`, the TGI in the assay on OVCAR-4 ovarian, in the assay with SF-539 CNS, in the assay with UO-31 renal, with SF-295 CNS, in the assay on MOLT-4 leukemia and in the assay on A549 NSCLC was over 100 µM throughout. The TGI in the assay with TK-10 renal, in the assay with CCRF-CEM leukemia, in the assay on M14 melanoma and with EKVX NSCLC was over 100 µM in each case.
As for `CN1c2ccccc2C(=O)NC12CCN(Cc1ccccc1)CC2`, the TGI in the assay with OVCAR-4 ovarian, in the assay on SF-539 CNS, in the assay with UO-31 renal, in the assay with SF-295 CNS, in the assay on MOLT-4 leukemia and in the assay on A549 NSCLC was over 100 µM throughout. The TGI with TK-10 renal, in the assay with CCRF-CEM leukemia, with M14 melanoma and in the assay with EKVX NSCLC was over 100 µM each time.
With `c1ccc2c(c1)nc1n2CCNC1`, the TGI with OVCAR-4 ovarian, in the assay on SF-539 CNS, with UO-31 renal, with SF-295 CNS, with MOLT-4 leukemia and in the assay with A549 NSCLC was over 100 µM throughout. In addition, the TGI with TK-10 renal, with CCRF-CEM leukemia, with M14 melanoma and in the assay with EKVX NSCLC was over 100 µM each time.
As to `O=c1[nH]c2nccnc2c2c([N+](=O)[O-])cccc12`, the TGI in the assay on OVCAR-4 ovarian, with SF-539 CNS, in the assay with UO-31 renal, in the assay with SF-295 CNS, in the assay with MOLT-4 leukemia and with A549 NSCLC was over 100 µM each time. For the same compound, the TGI with TK-10 renal, in the assay on CCRF-CEM leukemia, in the assay with M14 melanoma and in the assay with EKVX NSCLC was over 100 µM in each case.
Take `COc1ccc(C2c3cc4c(cc3OC(NNC(N)=O)C2C)OCO4)cc1` (stereo not given): the total growth inhibition concentration (TGI) with OVCAR-4 ovarian was over 100 µM; with SF-539 CNS, 4.86 µM; in the assay with UO-31 renal it was over 90.5 µM; in the assay on SF-295 CNS, 21.1 µM; with MOLT-4 leukemia, 74.5 µM; in the assay with A549 NSCLC, over 100 µM. The TGI is over 100 µM in the assay on TK-10 renal, over 29.4 µM with CCRF-CEM leukemia, over 60.1 µM in the assay on M14 melanoma and over 100 µM with EKVX NSCLC.
Regarding `CC(=O)OC(CC(C)C)P1(=O)N(CC(C)(C)C)[C@@H]2CCCC[C@H]2N1CC(C)(C)C` (stereo not given in full), the TGI in the assay with OVCAR-4 ovarian stood at 23.6 µM; in the assay on SF-539 CNS, 22.3 µM; with UO-31 renal it was 21.2 µM; in the assay with SF-295 CNS, 20.4 µM; with MOLT-4 leukemia, 25.3 µM; with A549 NSCLC, 18 µM. The TGI was 24.7 µM with TK-10 renal, over 93.3 µM with CCRF-CEM leukemia, 19.8 µM with M14 melanoma and 23.5 µM with EKVX NSCLC.
Take `O=C(CCCC1Cc2ccccc2C1=O)c1ccccc1` (stereo not given): the TGI in the assay with OVCAR-4 ovarian, in the assay with SF-539 CNS, in the assay with UO-31 renal, in the assay with SF-295 CNS, with MOLT-4 leukemia and in the assay on A549 NSCLC was over 100 µM in each case. Further, the TGI in the assay with TK-10 renal, in the assay on CCRF-CEM leukemia, with M14 melanoma and in the assay with EKVX NSCLC was over 100 µM throughout.
For `O=C1CSC(c2cccc(Cl)c2)N1c1c(O)c(Cl)cc(Br)c1Cl` (stereo not given), the TGI is 28.1 µM in the assay with OVCAR-4 ovarian; over 100 µM in the assay with SF-539 CNS; 28.9 µM in the assay with UO-31 renal; over 100 µM with SF-295 CNS; 57.9 µM in the assay with MOLT-4 leukemia; over 100 µM in the assay with A549 NSCLC. Moreover, the TGI in the assay on TK-10 renal is over 100 µM; in the assay with CCRF-CEM leukemia it was 44.8 µM; with M14 melanoma, over 100 µM; in the assay with EKVX NSCLC it was over 100 µM.
As to `CC(C)=CCC/C(=C\CC/C(=C\CCc1ccoc1)C(=O)O)C(=O)O`, the TGI in the assay on OVCAR-4 ovarian, in the assay on SF-539 CNS, in the assay with UO-31 renal, in the assay with SF-295 CNS, in the assay with MOLT-4 leukemia and in the assay on A549 NSCLC was over 100 µM in each case. Besides, the concentration for total growth inhibition (TGI) with TK-10 renal, in the assay with CCRF-CEM leukemia, with M14 melanoma and in the assay on EKVX NSCLC was over 100 µM throughout.
